Reference: ChEMBL document CHEMBL1153188, “Quinoline-3-carboxamide containing sulfones as liver X receptor (LXR) agonists with binding selectivity for LXRbeta and low blood-brain penetration” (Bioorg Med Chem Lett, 2010)

Assays:
[1] = molecular target: T1, Oxysterols receptor LXR-beta (Homo sapiens, UniProt P55055); experiment: Displacement of [3H]TO901317 from human recombinant LXRbeta expressed in Escherichia coli by flashplate method
[2] = molecular target: T2, Oxysterols receptor LXR-alpha (Homo sapiens, UniProt Q13133); experiment: Displacement of [3H]TO901317 from human recombinant LXRalpha expressed in Escherichia coli by flashplate method
T2 sequence (Q13133 whole entry): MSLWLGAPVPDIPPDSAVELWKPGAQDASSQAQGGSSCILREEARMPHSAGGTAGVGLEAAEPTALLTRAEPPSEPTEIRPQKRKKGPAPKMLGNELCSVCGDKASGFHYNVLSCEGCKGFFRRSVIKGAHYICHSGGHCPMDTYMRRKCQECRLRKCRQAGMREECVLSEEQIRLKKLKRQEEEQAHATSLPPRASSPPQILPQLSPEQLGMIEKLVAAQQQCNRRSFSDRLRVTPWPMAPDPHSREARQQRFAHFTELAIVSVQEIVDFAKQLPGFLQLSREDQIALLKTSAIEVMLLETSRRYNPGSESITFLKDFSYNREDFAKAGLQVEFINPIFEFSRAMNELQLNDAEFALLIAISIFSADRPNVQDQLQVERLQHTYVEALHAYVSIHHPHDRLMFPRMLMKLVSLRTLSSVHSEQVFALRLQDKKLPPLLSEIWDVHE

[3] = system: THP-1; experiment: Effect on ABCA1 gene expression in human differentiated THP1 cells; assay type: functional, cell-based
[4] = system: THP-1; experiment: Effect on ABCA1 gene expression in human differentiated THP1 cells relative to TO901317; assay type: functional
[5] = system: HepG2; experiment: Effect on triglyceride accumulation in human HepG2 cells; assay type: functional, cell-based
[6] = system: HepG2; experiment: Effect on triglyceride accumulation in human HepG2 cells relative to TO901317; assay type: functional
[7] = molecular target: T1, Oxysterols receptor LXR-beta
[8] = molecular target: T2, Oxysterols receptor LXR-alpha
[9] = Ratio of AUC (0 to infinity) in brain to AUC (0 to infinity) in plasma in Long Evans rat at 30 mg/kg, po; assay type: ADME, organism-based; set-up: dose 30 mg/kg, route oral; details: brain and plasma
[10] = Cmax in Long Evans rat plasma at 30 mg/kg, po; assay type: ADME, organism-based; set-up: dose 30 mg/kg, route oral
[11] = system: Plasma; experiment: AUC (0 to infinity) in Long Evans rat plasma at 30 mg/kg, po; assay type: ADME, organism-based; set-up: time infinity, dose 30 mg/kg, route oral; details: in vivo
[12] = Cmax in Long Evans rat brain at 30 mg/kg, po; assay type: ADME, organism-based; set-up: dose 30 mg/kg, route oral
[13] = system: Plasma; experiment: AUC (0 to infinity) in Long Evans rat brain at 30 mg/kg, po; assay type: ADME, organism-based; set-up: time infinity, dose 30 mg/kg, route oral; details: in vivo
[14] = system: THP-1; experiment: Stimulation of [3H]cholesterol efflux in human THP1 foam cells loaded with ac-LDL relative to TO901317; assay type: functional, cell-based
[15] = system: Plasma; experiment: AUC (0 to infinity) in Long Evans rat brain at 10 mg/kg, po; assay type: ADME, organism-based; set-up: time infinity, dose 10 mg/kg, route oral; details: in vivo
[16] = Ratio of AUC (0 to infinity) in brain to AUC (0 to infinity) in plasma in Long Evans rat at 10 mg/kg, po; assay type: ADME, organism-based; set-up: dose 10 mg/kg, route oral; details: brain and plasma
[17] = system: THP-1; experiment: Stimulation of [3H]cholesterol efflux in human THP1 foam cells loaded with ac-LDL; assay type: functional, cell-based
[18] = Cmax in Long Evans rat plasma at 10 mg/kg, po; assay type: ADME, organism-based; set-up: dose 10 mg/kg, route oral
[19] = system: Plasma; experiment: AUC (0 to infinity) in Long Evans rat plasma at 10 mg/kg, po; assay type: ADME, organism-based; set-up: time infinity, dose 10 mg/kg, route oral; details: in vivo
[20] = Cmax in Long Evans rat brain at 10 mg/kg, po; assay type: ADME, organism-based; set-up: dose 10 mg/kg, route oral

T1 sequence (P55055 whole entry): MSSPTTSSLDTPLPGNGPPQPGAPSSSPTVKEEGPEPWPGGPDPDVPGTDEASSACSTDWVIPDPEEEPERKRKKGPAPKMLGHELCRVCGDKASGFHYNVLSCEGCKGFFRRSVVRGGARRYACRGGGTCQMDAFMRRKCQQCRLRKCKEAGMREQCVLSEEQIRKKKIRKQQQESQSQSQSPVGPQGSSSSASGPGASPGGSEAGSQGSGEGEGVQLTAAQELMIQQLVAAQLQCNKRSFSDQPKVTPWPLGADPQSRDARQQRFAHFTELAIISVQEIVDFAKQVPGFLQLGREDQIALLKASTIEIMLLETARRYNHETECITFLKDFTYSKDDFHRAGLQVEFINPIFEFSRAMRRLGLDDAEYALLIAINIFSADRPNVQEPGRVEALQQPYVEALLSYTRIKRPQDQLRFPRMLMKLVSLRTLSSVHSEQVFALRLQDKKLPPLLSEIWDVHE

SMILES | IC50 [1] | IC50 [2] | further results
CNC(=O)c1cnc2c(C(F)(F)F)cccc2c1-c1cccc(Oc2cccc(S(C)(=O)=O)c2)c1 | 367 nM | > 10000 nM | –
CS(=O)(=O)c1cccc(Oc2cccc(-c3c(C(=N)N)cnc4c(C(F)(F)F)cccc34)c2)c1 | 5130 nM | 29800 nM | –
CS(=O)(=O)c1cccc(Oc2cccc(-c3c(C(=O)O)cnc4c(C(F)(F)F)cccc34)c2)c1 | 1080 nM | 6350 nM | –
CCCS(=O)(=O)c1cccc(Oc2cccc(-c3c(C(N)=O)cnc4c(C(F)(F)F)cccc34)c2)c1 | 57 nM | 1360 nM | –
CS(=O)(=O)c1cccc(Oc2cccc(-c3c(-n4cnnn4)cnc4c(C(F)(F)F)cccc34)c2)c1 | 5290 nM | 26600 nM | –
Fc1ccc(-c2c3cccc(C(F)(F)F)c3nn2Cc2ccc(F)cc2Cl)cc1 [LXR-623] | – | – | Kp [9]: 1.2; Efficacy [4]: 100%; EC50 [5]: 1000 nM; Efficacy [6]: 38%; Cmax [10]: 2850 ng/mL; AUC [11]: 13057 ng/mL; Cmax [12]: 3530 ng/mL; AUC [13]: 15312 ng/mL
CCNC(=O)c1cnc2c(C(F)(F)F)cccc2c1-c1cccc(Oc2cccc(S(C)(=O)=O)c2)c1 | 730 nM | 6860 nM | –
O=C(O)Cc1ccc(COc2cccc(-c3c(Cc4ccccc4)cnc4c(C(F)(F)F)cccc34)c2)cc1 | – | – | Activity [14]: 88%
CS(=O)(=O)c1cccc(Oc2cccc(-c3c(C(N)=O)cnc4ccccc34)c2)c1 | 2850 nM | > 10000 nM | –
CS(=O)(=O)c1cc(Cl)cc(Oc2cccc(-c3c(C(N)=O)cnc4c(C(F)(F)F)cccc34)c2)c1 | 62 nM | 1770 nM | –
CS(=O)(=O)c1cccc(Oc2cccc(-c3c(C(N)=O)cnc4c(F)cccc34)c2)c1 | 590 nM | 12700 nM | –
CS(=O)(=O)c1cccc(Oc2cccc(-c3c(CN)cnc4c(C(F)(F)F)cccc34)c2)c1 | 77 nM | 445 nM | –

Now from value to compound, other results behind:

IC50 [1] | IC50 [2] | SMILES | further results
18 nM | 600 nM | CS(=O)(=O)c1cccc(Oc2cccc(-c3c(C(N)=O)cnc4c(C(F)(F)F)cccc34)c2)c1 | EC50 [3]: 110 nM; Efficacy [4]: 104%; EC50 [5]: 370 nM; Efficacy [6]: 47%; EC50 [7]: 1600 nM; EC50 [8]: 4500 nM
5 nM | 286 nM | CC(C)S(=O)(=O)c1cccc(Oc2cccc(-c3c(C(N)=O)cnc4c(C(F)(F)F)cccc34)c2)c1 | –
2.2 nM | 13.4 nM | CS(=O)(=O)c1cccc(Oc2cccc(-c3c(C#N)cnc4c(C(F)(F)F)cccc34)c2)c1 | –
11 nM | 453 nM | CCS(=O)(=O)c1cccc(Oc2cccc(-c3c(C(N)=O)cnc4c(C(F)(F)F)cccc34)c2)c1 | –
2 nM | 6.6 nM | CCOC(=O)c1cnc2c(C(F)(F)F)cccc2c1-c1cccc(Oc2cccc(S(C)(=O)=O)c2)c1 | –
18 nM | 552 nM | CS(=O)(=O)c1cc(F)cc(Oc2cccc(-c3c(C(N)=O)cnc4c(C(F)(F)F)cccc34)c2)c1 | –
28 nM | 756 nM | Cc1cccc2c(-c3cccc(Oc4cccc(S(C)(=O)=O)c4)c3)c(C(N)=O)cnc12 | –
16 nM | 543 nM | CS(=O)(=O)c1cccc(Oc2cccc(-c3c(C(N)=O)cnc4c(Cl)cccc34)c2)c1 | AUC [15]: 457 ng/mL; Kp [16]: 0.08; EC50 [3]: 440 nM; Efficacy [4]: 107%; EC50 [5]: 1250 nM; Efficacy [6]: 68%; EC50 [17]: 10 nM; Activity [14]: 71%; Cmax [18]: 1270 ng/mL; AUC [19]: 5417 ng/mL; Cmax [20]: 107 ng/mL; EC50 [7]: 630 nM; EC50 [8]: 3000 nM
